Each block holds one molecule with its values, some of them ahead of it. Active and inactive are the calls of the source. The calls are words filed in the database; no cut-off is given here.
Experiments:
[1] = system: A549; assay: cells; settings: Homo sapiens, A549, 72 h
Description: Antiproliferative activity against human A549 cells incubated for 72 hrs by MTT assay

[2] = system: K562; assay: Antiproliferative activity against human K562 cells incubated for 72 hrs by PrestoBlue assay; settings: K562, 72 h
[3] = system: HT-1080; assay: Antiproliferative activity against human HT-1080 cells incubated for 72 hrs by MTT assay; settings: HT-1080, 72 h
[4] = Cytotoxicity against HEK293 cells incubated for 72 hrs by MTT assay; type: toxicity, cell-based; settings: human
[5] = system: U-87 MG; assay: Antiproliferative activity against human U-87 MG cells incubated for 72 hrs by MTT assay
[6] = system: K562; assay: Induction of cell cycle arrest in human K562 cells assessed as cell population at sub-G1 phase at 1.992 uM incubated for 72 hrs by propidium iodide staining based flow cytometry analysis; type: functional
[7] = system: ACHN; assay: Antiangiogenic activity in human ACHN cells assessed as reduction in mesh length at 17.157 uM incubated for 72 hrs by microscopic analysis; type: functional, cell-based
[8] = system: K562; assay: Induction of apoptosis in human K562 cells assessed as appearance of apoptotic cells at 1.992 uM after 24 to 72 hrs by AO/EB staining based fluorescence microscopic analysis; type: functional, cell-based; settings: time 24-72 hrs
[9] = molecular target: Macrophage metalloelastase (Homo sapiens, UniProt P39900); assay: Inhibition of MMP-12 (unknown origin)
[10] = system: K562; assay: Induction of apoptosis in human K562 cells at 1.992 uM by AO/EB staining based fluorescence microscopic analysis; type: functional, cell-based; settings: time 24-72 hrs, TDE = time-dependent effect
[11] = system: ACHN; assay: Antiangiogenic activity in human ACHN cells assessed as reduction in branch length at 17.157 uM incubated for 72 hrs by microscopic analysis; type: functional, cell-based
[12] = system: K562; assay: Induction of apoptosis in human K562 cells assessed as appearance of nucleus with fragmented DNA at 1.992 uM after 72 hrs by AO/EB staining based fluorescence microscopic analysis; type: functional, cell-based
[13] = molecular target: Neutrophil collagenase (Homo sapiens, UniProt P22894); assay: Inhibition of MMP-8 (unknown origin)
[14] = system: K562; assay: Induction of apoptosis in human K562 cells assessed as total apoptotic cells at 1.992 uM incubated for 72 hrs by Annexin-V/PI staining based flow cytometry analysis (reference value: 2.6 +/- 1.1%); type: functional
[15] = system: K562; assay: Induction of apoptosis in human K562 cells assessed as increase in late apoptotic cells at 1.992 uM after 48 hrs by AO/EB staining based fluorescence microscopic analysis; type: functional, cell-based
[16] = system: ACHN; assay: Antiangiogenic activity in human ACHN cells assessed as reduction in total tube length at 17.157 uM incubated for 72 hrs by microscopic analysis; type: functional, cell-based
[17] = system: K562; assay: Induction of apoptosis in human K562 cells assessed as increase in necrotic cells at 1.992 uM after 72 hrs by AO/EB staining based fluorescence microscopic analysis; type: functional, cell-based
[18] = system: K562; assay: Induction of cell cycle arrest in human K562 cells assessed as cell population at G2/M phase at 1.992 uM incubated for 72 hrs by propidium iodide staining based flow cytometry analysis (reference value: 22.9 +/- 1.9%); type: functional
[19] = system: K562; assay: Induction of cell cycle arrest in human K562 cells assessed as cell population at G1 phase at 1.992 uM incubated for 72 hrs by propidium iodide staining based flow cytometry analysis (reference value: 44.4 +/- 1.5%); type: functional
[20] = system: K562; assay: Induction of apoptosis in human K562 cells assessed as increase in early apoptotic cells at 1.992 uM after 24 hrs by AO/EB staining based fluorescence microscopic analysis; type: functional, cell-based
[21] = Downregulation of MMP-2 expression in human K562 cells at 1.992 uM incubated for 48 hrs by flow cytometry analysis; type: functional
[22] = system: K562; assay: Induction of cell cycle arrest in human K562 cells assessed as cell population at S phase at 1.992 uM incubated for 72 hrs by propidium iodide staining based flow cytometry analysis (reference value: 32.7 +/- 3.1%); type: functional
[23] = system: K562; assay: Induction of apoptosis in human K562 cells assessed as morphological changes at 1.992 uM after 72 hrs by AO/EB staining based fluorescence microscopic analysis; type: functional, cell-based
[24] = system: ACHN; assay: Antiproliferative activity against human ACHN cells incubated for 72 hrs by MTT assay
[25] = system: K562; assay: Induction of apoptosis in human K562 cells assessed as increase in late apoptotic dead cells at 1.992 uM after 72 hrs by AO/EB staining based fluorescence microscopic analysis; type: functional, cell-based
[26] = system: ACHN; assay: Antiangiogenic activity in human ACHN cells assessed as reduction in total segment length at 17.157 uM incubated for 72 hrs by microscopic analysis; type: functional, cell-based
[27] = system: K562; assay: Antiproliferative activity against human K562 cells; type: functional, cell-based
[28] = system: K562; assay: Induction of cell cycle arrest in human K562 cells assessed as cell population at G1 phase at 4.919 uM incubated for 72 hrs by propidium iodide staining based flow cytometry analysis (reference value: 44.4 +/- 1.5%); type: functional
[29] = Downregulation of MMP-2 expression in human K562 cells at 4.919 uM incubated for 48 hrs by flow cytometry analysis; type: functional
[30] = system: K562; assay: Induction of cell cycle arrest in human K562 cells assessed as cell population at S phase at 4.919 uM incubated for 72 hrs by propidium iodide staining based flow cytometry analysis (reference value: 32.7 +/- 3.1%); type: functional
[31] = molecular target: 72 kDa type IV collagenase (Homo sapiens, UniProt P08253); assay: Inhibition of MMP-2 (unknown origin) using chromogenic substrate incubated for 1 hr by microplate photometer analysis
[32] = system: ACHN; assay: Antiangiogenic activity in human ACHN cells assessed as reduction in branch length at 26.764 uM incubated for 72 hrs by microscopic analysis; type: functional, cell-based
[33] = system: ACHN; assay: Antiangiogenic activity in human ACHN cells assessed as reduction in total segment length at 26.764 uM incubated for 72 hrs by microscopic analysis; type: functional, cell-based
[34] = system: ACHN; assay: Antiangiogenic activity in human ACHN cells assessed as reduction in total tube length at 26.764 uM incubated for 72 hrs by microscopic analysis; type: functional, cell-based
[35] = molecular target: Matrix metalloproteinase-9 (Homo sapiens, UniProt P14780); assay: Inhibition of MMP-9 (unknown origin) using chromogenic substrate incubated for 1 hr by microplate photometer analysis
[36] = system: K562; assay: Induction of cell cycle arrest in human K562 cells assessed as cell population at G2/M phase at 4.919 uM incubated for 72 hrs by propidium iodide staining based flow cytometry analysis (reference value: 22.9 +/- 1.9%); type: functional
[37] = system: K562; assay: Induction of apoptosis in human K562 cells assessed as total apoptotic cells at 4.919 uM incubated for 72 hrs by Annexin-V/PI staining based flow cytometry analysis (reference value: 2.6 +/- 1.1%); type: functional
[38] = system: K562; assay: Induction of cell cycle arrest in human K562 cells assessed as cell population at sub-G1 phase at 4.919 uM incubated for 72 hrs by propidium iodide staining based flow cytometry analysis; type: functional
[39] = system: ACHN; assay: Antiangiogenic activity in human ACHN cells assessed as reduction in mesh length at 26.764 uM incubated for 72 hrs by microscopic analysis; type: functional, cell-based

Chain of Neutrophil collagenase (P22894 whole entry): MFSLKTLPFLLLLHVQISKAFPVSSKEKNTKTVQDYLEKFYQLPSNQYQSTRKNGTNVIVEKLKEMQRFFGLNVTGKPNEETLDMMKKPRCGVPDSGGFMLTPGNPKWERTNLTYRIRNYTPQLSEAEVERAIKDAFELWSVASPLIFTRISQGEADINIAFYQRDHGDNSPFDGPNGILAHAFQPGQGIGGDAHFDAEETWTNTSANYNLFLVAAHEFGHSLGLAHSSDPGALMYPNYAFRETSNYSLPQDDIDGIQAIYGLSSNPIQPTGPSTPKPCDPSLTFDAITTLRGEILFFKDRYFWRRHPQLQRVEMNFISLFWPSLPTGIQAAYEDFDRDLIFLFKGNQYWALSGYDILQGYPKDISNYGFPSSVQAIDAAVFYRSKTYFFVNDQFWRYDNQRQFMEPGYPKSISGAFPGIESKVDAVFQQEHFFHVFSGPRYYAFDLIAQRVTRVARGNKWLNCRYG
Chain of 72 kDa type IV collagenase (P08253 whole entry): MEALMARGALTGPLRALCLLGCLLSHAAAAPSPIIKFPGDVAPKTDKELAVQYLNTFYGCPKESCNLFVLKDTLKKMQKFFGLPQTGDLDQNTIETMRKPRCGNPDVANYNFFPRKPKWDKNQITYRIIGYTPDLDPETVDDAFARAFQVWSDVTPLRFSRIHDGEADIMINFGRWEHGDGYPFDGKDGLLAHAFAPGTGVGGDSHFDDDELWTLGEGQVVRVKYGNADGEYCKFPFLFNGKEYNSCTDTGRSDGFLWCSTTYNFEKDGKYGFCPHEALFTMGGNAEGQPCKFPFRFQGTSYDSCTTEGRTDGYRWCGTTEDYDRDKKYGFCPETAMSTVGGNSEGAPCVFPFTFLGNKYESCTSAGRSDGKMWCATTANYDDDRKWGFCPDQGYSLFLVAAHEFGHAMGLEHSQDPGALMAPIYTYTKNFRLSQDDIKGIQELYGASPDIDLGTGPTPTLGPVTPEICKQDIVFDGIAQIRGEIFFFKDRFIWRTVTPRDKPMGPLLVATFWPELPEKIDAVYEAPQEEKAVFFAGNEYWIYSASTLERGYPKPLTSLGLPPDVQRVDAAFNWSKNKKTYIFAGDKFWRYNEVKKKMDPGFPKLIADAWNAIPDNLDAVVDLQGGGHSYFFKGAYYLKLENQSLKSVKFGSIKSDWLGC
Chain of Macrophage metalloelastase (P39900 whole entry): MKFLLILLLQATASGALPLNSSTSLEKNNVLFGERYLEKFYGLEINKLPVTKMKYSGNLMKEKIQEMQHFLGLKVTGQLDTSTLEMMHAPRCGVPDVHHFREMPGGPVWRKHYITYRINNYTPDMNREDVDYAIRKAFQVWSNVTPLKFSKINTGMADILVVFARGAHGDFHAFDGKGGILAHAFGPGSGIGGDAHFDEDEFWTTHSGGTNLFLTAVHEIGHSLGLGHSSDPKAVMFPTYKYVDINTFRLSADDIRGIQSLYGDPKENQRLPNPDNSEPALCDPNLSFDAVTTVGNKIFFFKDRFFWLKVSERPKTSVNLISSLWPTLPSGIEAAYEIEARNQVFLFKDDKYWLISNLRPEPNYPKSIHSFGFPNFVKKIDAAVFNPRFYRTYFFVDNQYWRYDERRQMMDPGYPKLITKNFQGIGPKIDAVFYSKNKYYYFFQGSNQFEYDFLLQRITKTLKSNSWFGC
Chain of Matrix metalloproteinase-9 (P14780 whole entry): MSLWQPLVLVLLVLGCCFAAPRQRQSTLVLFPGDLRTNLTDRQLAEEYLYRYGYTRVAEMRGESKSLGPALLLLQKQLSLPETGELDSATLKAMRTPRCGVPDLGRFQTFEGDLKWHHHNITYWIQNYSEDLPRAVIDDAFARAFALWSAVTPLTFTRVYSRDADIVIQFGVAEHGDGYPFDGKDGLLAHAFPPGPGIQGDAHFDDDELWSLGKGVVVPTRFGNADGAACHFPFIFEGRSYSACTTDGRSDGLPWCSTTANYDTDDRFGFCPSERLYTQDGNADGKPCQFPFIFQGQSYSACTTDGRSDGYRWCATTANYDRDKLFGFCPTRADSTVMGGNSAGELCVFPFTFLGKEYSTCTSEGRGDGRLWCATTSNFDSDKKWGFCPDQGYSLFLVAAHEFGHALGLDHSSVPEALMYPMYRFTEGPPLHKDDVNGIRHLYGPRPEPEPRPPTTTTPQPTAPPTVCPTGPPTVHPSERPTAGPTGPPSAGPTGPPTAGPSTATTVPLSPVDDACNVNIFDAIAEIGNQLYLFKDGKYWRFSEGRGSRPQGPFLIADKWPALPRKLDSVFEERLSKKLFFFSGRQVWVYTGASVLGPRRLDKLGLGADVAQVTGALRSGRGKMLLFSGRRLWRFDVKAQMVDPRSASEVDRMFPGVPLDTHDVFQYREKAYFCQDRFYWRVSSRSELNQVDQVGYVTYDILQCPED

SMILES: COc1ccc(S(=O)(=O)N(CC(=O)NO)CC(C)C)cc1
IC50 [1]: 13.5 µM | IC50 [2]: 4.77 µM

SMILES: CCNC(=O)CC[C@@H](NS(=O)(=O)c1ccc([N+](=O)[O-])cc1)C(=O)O
IC50 [3]: 32.9 µM | IC50 [1]: 12.2 µM | IC50 at 72 h [4]: 145 µM | IC50 [2]: 7.76 µM | IC50 [5]: 16.2 µM

SMILES: CCCCNC(=O)CC[C@@H](NS(=O)(=O)c1ccc(C)cc1)C(=O)O
IC50 [3]: 25.9 µM | IC50 [1]: 19.5 µM | IC50 at 72 h [4]: 391 µM | IC50 [2]: 3.75 µM | IC50 [5]: 16.8 µM

SMILES: CNC(=O)CC[C@@H](NS(=O)(=O)c1ccc([N+](=O)[O-])cc1)C(=O)O
IC50 [3]: 24.4 µM | IC50 [1]: 20.8 µM | IC50 at 72 h [4]: 417 µM | IC50 [2]: 5.69 µM | IC50 [5]: 20.5 µM

SMILES: CC(C)NC(=O)CC[C@@H](NS(=O)(=O)c1ccc([N+](=O)[O-])cc1)C(=O)O
IC50 [3]: 43.5 µM | IC50 [1]: 10.6 µM | IC50 at 72 h [4]: 271 µM | IC50 [2]: 11 µM | IC50 [5]: 37.5 µM

SMILES: CCCCCNC(=O)CC[C@@H](NS(=O)(=O)c1ccc([N+](=O)[O-])cc1)C(=O)O
IC50 [27]: 6.79 µM | IC50 [3]: 20.7 µM | IC50 [1]: 12.7 µM | IC50 at 72 h [4]: 254 µM | IC50 [5]: 14.2 µM

SMILES: CNC(=O)CC[C@@H](NS(=O)(=O)c1ccc(C)cc1)C(=O)O
IC50 [3]: 25.2 µM | IC50 [1]: 5.14 µM | IC50 at 72 h [4]: 203 µM | IC50 [2]: 2.37 µM | IC50 [5]: 28.9 µM

SMILES: Cc1ccc(S(=O)(=O)N[C@H](CCC(=O)NC(C)C)C(=O)O)cc1
IC50 [3]: 19.5 µM | IC50 [1]: 17.3 µM | IC50 at 72 h [4]: 347 µM | IC50 [2]: 4.24 µM | IC50 [5]: 20.3 µM

SMILES: CCNC(=O)CC[C@@H](NS(=O)(=O)c1ccc(C)cc1)C(=O)O
IC50 [3]: 16.5 µM | IC50 [1]: 4.82 µM | IC50 at 72 h [4]: 491 µM | IC50 [2]: 2.54 µM | IC50 [5]: 32.3 µM

SMILES: CCCCCNC(=O)CC[C@@H](NS(=O)(=O)c1ccc(C)cc1)C(=O)O
IC50 [3]: 27.6 µM | IC50 [1]: 14.4 µM | IC50 at 72 h [4]: 408 µM | IC50 [2]: 8.37 µM | IC50 [5]: 33.1 µM

SMILES: CCCCNC(=O)CC[C@@H](NS(=O)(=O)c1ccc([N+](=O)[O-])cc1)C(=O)O
IC50 [27]: 5.26 µM | IC50 [31]: 0.456 µM | IC50 [13]: > 2 µM | IC50 [3]: 37.6 µM | IC50 [1]: 18.4 µM | IC50 at 72 h [4]: 368 µM | IC50 [35]: 0.833 µM | IC50 [5]: 29 µM

More lines, main results first:

IC50 [3]: 18.3 µM | IC50 [1]: 8.98 µM | IC50 [2]: 2.27 µM | IC50 [5]: 19.9 µM
SMILES: Cc1ccc(S(=O)(=O)N[C@H](CCC(N)=O)C(=O)O)cc1
IC50 at 72 h [4]: 279 µM

IC50 [9]: 1.24 µM | IC50 [13]: > 2 µM | IC50 [3]: 19.7 µM | IC50 [1]: 3.57 µM | IC50 [2]: 1.99 µM | IC50 [24]: 17.2 µM | IC50 [5]: 17.5 µM
SMILES: Cc1ccc(S(=O)(=O)N[C@H](CCC(=O)NCc2ccccc2)C(=O)O)cc1
Activity [6]: 12% | Activity [7]: Active | Activity [8]: Active | Activity [10]: Tde | Activity [11]: Active | Activity [12]: inactive | Activity [14]: 39.7% | Activity [15]: Active | Activity [16]: Active | Activity [17]: Active | Activity [18]: 14.7% | Activity [19]: 56.4% | Activity [20]: Active | Activity [21]: 20.1% | IC50 at 72 h [4]: 293 µM | Activity [22]: 29.1% | Activity [23]: inactive | Activity [25]: Active | Activity [26]: Active

IC50 [3]: 16.2 µM | IC50 [1]: 10.8 µM | IC50 [2]: 8.06 µM | IC50 [5]: 38.5 µM
SMILES: CC(C)CNC(=O)CC[C@@H](NS(=O)(=O)c1ccc([N+](=O)[O-])cc1)C(=O)O
IC50 at 72 h [4]: 217 µM

IC50 [13]: > 2 µM | IC50 [3]: 39.2 µM | IC50 [1]: 32.2 µM | IC50 [2]: 2.35 µM | IC50 [5]: 26.3 µM
SMILES: Cc1ccc(S(=O)(=O)N[C@H](CCC(=O)NCC(C)C)C(=O)O)cc1
IC50 at 72 h [4]: 645 µM

IC50 [9]: 1.72 µM | IC50 [31]: 0.273 µM | IC50 [13]: > 2 µM | IC50 [3]: 57.5 µM | IC50 [1]: 5.68 µM | IC50 [35]: 0.561 µM | IC50 [2]: 4.91 µM | IC50 [24]: 26.8 µM | IC50 [5]: 17.9 µM
SMILES: O=C(CC[C@@H](NS(=O)(=O)c1ccc([N+](=O)[O-])cc1)C(=O)O)NCc1ccccc1
Activity [28]: 49% | Activity [29]: 19.6% | Activity [30]: 33.6% | Activity [32]: Active | Activity [33]: Active | Activity [34]: Active | IC50 at 72 h [4]: 114 µM | Activity [36]: 17.4% | Activity [37]: 26.7% | Activity [38]: 4.6% | Activity [39]: Active

IC50 [3]: 20.5 µM | IC50 [1]: 8.99 µM | IC50 [2]: 9.73 µM | IC50 [5]: 26.4 µM
SMILES: NC(=O)CC[C@@H](NS(=O)(=O)c1ccc([N+](=O)[O-])cc1)C(=O)O
IC50 at 72 h [4]: 173 µM
